{"source": "patent US20240415816A1", "about": "“ADJUNCTIVE D-CYCLOSERINE AUGMENTATION OF TRANSCRANIAL MAGNETIC STIMULATION (TMS) THERAPY FOR OBSESSIVE COMPULSIVE DISORDER” (MCGRX CORP., priority 2021, published 2024)", "key": {"[1]": {"test": "Motor cortex TMS plasticity: stimulus response curve slope after single and repeated spaced iTBS, randomized double-blind placebo-controlled crossover study", "assay_type": "in vivo, human", "settings": "healthy participants (n=20), +30 and +60 minutes, vs placebo condition", "protocol": "Methods: A randomized double-blind placebo-controlled crossover study in healthy participants (n=20) was conducted (NCT05081986). Participants completed the study in two experimental sessions separated. In these experiments, the motor cortex was stimulated twice using TMS intermittent theta burst stimulation (iTBS) with a one-hour interval between interventions. In random order, this was done with placebo or D-cycloserine (100 mg) as adjuvant, and then the converse at least one week later. The participants' surface anatomical markers were registered to a template magnetic resonance brain image using Neuronavigation software (ANT Neuro, Germany) to permit neuronavigation and reliable targeting throughout the experiment. Transcranial magnetic stimulation involved a MagPro X100 system with Cool-B70 figure-eight coil (MagVenture, Denmark). The iTBS protocol consisted of 20 trains of bursts of 3-pulses at 50 Hz, repeated at 5 Hz with an 8 second inter-train interval at 80% RMT. Motor evoked potentials (MEPs) from the first-dorsal interosseous muscle were sampled to describe stimulus response curves using CED Signal (Cambridge, England) before and after iTBS. […] EMG data were analyzed offline using MATLAB via custom written scripts as previously described^123. […]"}, "[2]": {"test": "Wisconsin Card Sorting Task in the OCD randomized double-blind trial", "assay_type": "in vivo, human", "settings": "iTBS+DCS (100 mg), baseline vs after 4 weeks of treatment, compared with iTBS+Placebo and Sham-iTBS", "protocol": "The efficacy of 100 mg DCS as an adjunctive strategy to iTBS to reduce OCD-related cognitive impairment and/or improve cognition in OCD was tested in a randomized double-blind 4-week study described in the Example above. Participants completed the Wisconsin Card Sorting Task at baseline and after 4 weeks of treatment. The preplanned focus was on the percent perseverative errors as an index of executive function, cognitive flexibility and cognitive control."}}, "note": "“Also recorded” adds a separate entry of the source."}
{"smiles": "N[C@@H]1CON=C1O", "note": "[DCS, D-cycloserine]", "values": [{"measurement": "change in stimulus response curve (SRC) slope after first (single) iTBS", "setting": "[1]; DCS 100 mg as adjuvant to iTBS of motor cortex", "result": "stable after a single iTBS; also recorded: the initial SRC shift at +30 minutes remains stable at +60 minutes"}, {"measurement": "change in stimulus response curve (SRC) slope after second (repeated spaced) iTBS", "setting": "[1]; DCS 100 mg, second iTBS 60 minutes after the first", "result": "compound with spaced repeated iTBS; also recorded: a further shift in SRC slope in the DCS condition at +30 minutes that was sustained at +60 minutes"}, {"measurement": "percentage of perseverative errors (Wisconsin Card Sorting Task)", "setting": "[2]", "result": "significant reductions in the percentage of perseverative errors; also recorded: decrease in the percent perseverative errors"}]}
